From patent publication US10077273B2, “SHMT inhibitors” (The Trustees of Princeton University, priority 2016, dated 2018)
Like-named read-outs stand apart in the source and are kept apart here.

What was measured:
[1] = test system: human colon carcinoma HCT-116 WT cells; test: Cell growth assay (resazurin), HCT-116 wild-type; assay type: cell-based; conditions: for IC50: Homo sapiens, HCT-116, Table 2
Method: The described cell lines for Examples 8 and 9 are cultured in 96-well plates in Dulbecco's modified eagle media (DMEM) without pyruvate (CELLGRO) with 10% dialysed fetal bovine serum (Invitrogen) in 5% CO2 at 37° C. Approximately 2,500 cells are plated in each well in 90 uL of media. After 24 hours cells are treated with various concentrations of inhibitor (time=0 hours), with or without formate. Growth was assessed at multiple time points (time=0, 24, 48, 72 hours) through measurement of fluorescence at 595 nm (excitation at 535 nm) on a BioTek micro titer plate reader after incubation with resazurin (0.01 mg/mL for 1.5 hours). IC50 curves are generated from percent inhibition of growth at 72 hours. […]

HCT cells = test: Formate rescue assay in cell growth; assay type: cell-based, human; conditions: Table 2
Method: Application of formate is shown to rescue the anti-growth effect in certain human cells treated with SHMT inhibitors in a cell growth assay.
The described cell lines for Examples 8 and 9 are cultured in 96-well plates in Dulbecco's modified eagle media (DMEM) without pyruvate (CELLGRO) with 10% dialysed fetal bovine serum (Invitrogen) in 5% CO2 at 37° C. Approximately 2,500 cells are plated in each well in 90 uL of media. After 24 hours cells are treated with various concentrations of inhibitor (time=0 hours), with or without formate. Growth was assessed at multiple time points (time=0, 24, 48, 72 hours) through measurement of fluorescence at 595 nm (excitation at 535 nm) on a BioTek micro titer plate reader after incubation with resazurin (0.01 mg/mL for 1.5 hours). IC50 curves are generated from percent inhibition of growth at 72 hours.

human SHMT2 = human SHMT2 (Homo sapiens, UniProt P34897)
Method: (§2) For the SHMT1 and SHMT2 in vitro enzymatic assays, the rate of 5,10-methylene tetrahydrofolate formation catalyzed by SHMT1/2 was indirectly evaluated by coupling with excess MTHFD2, which converts NAD+ to NADH allowing for reaction monitoring by absorption at 340 nm. […] Inhibition of initial reaction velocity was determined by adding various inhibitors at different concentrations and monitored as described. IC50 may be calculated based on this assay.

human SHMT1 = human SHMT1 (Homo sapiens, UniProt P34896); conditions: read-out: SHMT1 IC50; Table 3
Method: as §2

[2] = Liver microsome assay (metabolic stability); assay type: in vitro ADME; conditions: male, CD-1, mouse, pooled liver microsomes
Method: The following master solution was prepared before compound addition:
Two separate experiments were performed as follows: a) With Cofactors (NADPH and UDPGA): 40 μL of 10 mM NADPH and 40 μL of 20 mM UDPGA were added to the incubations. The final concentrations of microsomes, NADPH and UDPGA were 0.5 mg/mL, 1 mM and 2 mM, respectively. b) Without Cofactors (NADPH and UDPGA): 10 μL of 20 mg/mL liver microsomes and 80 μL of ultra-pure water were added to the incubations. The final concentration of microsomes was 0.5 mg/mL. The mixture was pre-warmed at 37° C. for 5 minutes.
The reaction was started with the addition of 4 μL of 200 μM control compound or test compound solution. Verapamil was used as positive control in this study. The final concentration of test compound or control compound was 2 μM. The incubation solution was incubated in water bath at 37° C. Aliquots of 50 μL were taken from the reaction solution at 0.5, 5, 15, 30, 45 and 60 minutes. The reaction was stopped by the addition of 5 volumes of cold acetonitrile with IS (100 nM alprazolam, 200 nM caffeine and 100 nM tolbutamide). Samples were centrifuged at 3,220 g for 40 minutes. Aliquot of 100 μL of the supernatant was mixed with 100 μL of ultra-pure H2O and then used for LC-MS/MS analysis. The in vitro half-life (in vitro t1/2) was determined from the slope value of the LC-MS signal of the test compound.

LogP value = assay type: physicochemical; conditions: Table 2; head prints (μM)
Jurkat cells = test: Cellular growth assay, Jurkat; assay type: cell-based
Method: (§1) Jurkat, REH, Farage, Daudi, Su-DHL2, Su-DHL-4, Su-DHL-6 cells were purchased from ATCC. Cells were subcultured in RPMI supplemented with 10% FBS. For growth assays, cells were seeded at 2×10^5/mL in 5 mL growth media in 12.5 cm flasks. Media was supplemented with sodium formate (1 mM), additional glycine (100 mg/L) and an SHMTi (5 uM). Cells were sampled daily, and counted using trypan blue staining and light microscopy.

Su-DHL-2 cells = test: Cellular growth assay, Su-DHL-2; assay type: cell-based
Method: as §1

HCT-116 ΔSHMT2 cells = test: Cell growth assay, HCT-116 SHMT2 deletion (knock-out) cells; assay type: cell-based, human; conditions: FIG. 3B; increased potency versus native cells
Method: Inhibitors of SHMT were evaluated in various cancer cell lines, in the presence and absence of mutations in mitochondrial folate pathway enzymes.
To analyze the effects of inhibition on each isoform independently, SHMT1 and SHMT2 HCT-116 deletion clones were used.

[3] = test system: human pancreatic cell line 8988T; test: Growth of pancreatic cancer cell line 8988T; assay type: cell-based; conditions: 8988T cells
Su-DHL4 cells [4] = test: Apoptosis by Annexin V surface staining, flow cytometry; assay type: cell-based
Source text: In contrast, cell growth is further decreased in Su-DHL4 cells by addition of formate. This can be further exacerbated by removal of glycine from the media. […] Using flow cytometry, apoptosis of Su-DHL4 cells were studied with AnnexinV surface staining (FIGS. 12D and 12E).

Su-DHL4 cells [5] = test: Cellular growth, SU-DHL4; assay type: cell-based; conditions: SU-DHL4, FIG. 12C legend
Method: as §1

[6] = replicate 1, read-out: CLint (replicate 1)
[7] = replicate 2, read-out: CLint (replicate 2)

human SHMT2, sequence (P34897 30-504 limits assumed): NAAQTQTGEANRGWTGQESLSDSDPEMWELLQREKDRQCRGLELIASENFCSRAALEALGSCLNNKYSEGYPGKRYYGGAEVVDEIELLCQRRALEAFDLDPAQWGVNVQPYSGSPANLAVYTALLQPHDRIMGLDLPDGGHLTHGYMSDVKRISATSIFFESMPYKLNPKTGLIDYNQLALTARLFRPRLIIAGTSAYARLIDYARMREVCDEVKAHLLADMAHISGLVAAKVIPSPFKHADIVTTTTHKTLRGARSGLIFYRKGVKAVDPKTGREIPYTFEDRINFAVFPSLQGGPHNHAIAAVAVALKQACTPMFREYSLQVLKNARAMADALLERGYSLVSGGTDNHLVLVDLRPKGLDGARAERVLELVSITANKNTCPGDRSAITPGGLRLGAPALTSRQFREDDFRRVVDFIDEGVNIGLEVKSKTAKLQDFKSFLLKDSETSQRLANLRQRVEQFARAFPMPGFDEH
human SHMT1, sequence (P34896 2-483 limits assumed): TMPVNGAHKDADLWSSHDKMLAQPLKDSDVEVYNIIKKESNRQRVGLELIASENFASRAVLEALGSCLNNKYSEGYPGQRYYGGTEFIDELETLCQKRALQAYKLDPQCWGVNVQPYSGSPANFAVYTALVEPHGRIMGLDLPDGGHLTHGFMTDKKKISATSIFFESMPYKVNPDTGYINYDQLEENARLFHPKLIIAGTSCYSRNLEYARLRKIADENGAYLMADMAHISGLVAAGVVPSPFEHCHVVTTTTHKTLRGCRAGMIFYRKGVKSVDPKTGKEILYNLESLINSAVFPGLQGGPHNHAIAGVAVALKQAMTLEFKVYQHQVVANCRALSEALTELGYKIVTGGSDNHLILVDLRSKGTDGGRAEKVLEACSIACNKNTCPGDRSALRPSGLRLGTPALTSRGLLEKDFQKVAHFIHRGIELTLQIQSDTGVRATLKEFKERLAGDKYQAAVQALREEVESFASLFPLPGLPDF

In the case of `Cc1n[nH]c2c1C(c1cc(C#CCCC(=O)N[C@@H](CCC(=O)O)C(=O)O)cc(C(F)(F)F)c1)(C(C)C)C(C#N)=C(N)O2` (stereo partly shown) [Compound 69], the IC50 [1] is reported as 100 µM and the “% formate rescue” value (HCT cells) is reported as 96.41%.
`COc1cccc(C2(C3CCC3)C(C#N)=C(N)Oc3[nH]nc(C)c32)c1` (stereo not shown) [HK-2] gave an IC50 (human SHMT2; read-out: SHMT2 IC50, Table 3) greater than 5 µM and an IC50 (human SHMT1) greater than 5 µM.
For `Cc1n[nH]c2c1C(c1cc(C#CCCCO)cc(C(F)(F)F)c1)(C(C)C)C(C#N)=C(N)O2` (stereo not drawn) [1 (enantiomeric ally active peak)], the IC50 [1] was 1.36 µM and the “% formate rescue” value (HCT cells) was 94.96%.
For `Cc1n[nH]c2c1C(c1cc(C#N)cc(C#CCCCO)c1)(C(C)C)C(C#N)=C(N)O2` (stereo not shown) [Compound 71], the IC50 [1] was 4.96 µM, the “% formate rescue” value (HCT cells) was 97.81% and the microsomal CLint at 2 μM [2, 6] was 285 µL/min/mg. The microsomal CLint at 2 μM [2, 7] was 203 µL/min/mg.
`Cc1n[nH]c2c1C(c1cc(C#CCCCO)cc(C(F)(F)F)c1)(C(C)C)C(C#N)=C(N)O2` (stereo not shown) [Compound 1] gave a logP (LogP value) of 3.91, a microsomal CLint at 2 μM [2, 6] of 597 µL/min/mg and a microsomal CLint at 2 μM [2, 7] of 776 µL/min/mg.
In the case of `COC(=O)CCC#Cc1cc(C(F)(F)F)cc(C2(C(C)C)C(C#N)=C(N)Oc3[nH]nc(C)c32)c1` (stereo not shown) [Compound 73], the logP (LogP value) is reported as 4.17, the IC50 [1] is reported as 11.1 µM and the “% formate rescue” value (HCT cells) is reported as 97.33%.
With `Cc1n[nH]c2c1C(c1cc(C#CCCC(N)=O)cc(C(F)(F)F)c1)(C(C)C)C(C#N)=C(N)O2` (stereo not shown) [Compound 11] the IC50 [1] was 5.98 µM, the “% formate rescue” value (HCT cells) was 96.98% and the microsomal CLint at 2 μM [2, 6] was 764 µL/min/mg. For the same molecule, the microsomal CLint at 2 μM [2, 7] was 541 µL/min/mg.
For `Cc1n[nH]c2c1C(c1cc(C#CCCC(=O)O)cc(C(F)(F)F)c1)(C(C)C)C(C#N)=C(N)O2` (stereo not shown) [Compound 4], the IC50 [1] was 15.1 µM, the “% formate rescue” value (HCT cells) was 93.35% and the IC50 (human SHMT2; read-out: SCHMT2 IC50, Table 2) was 0.00017 µM.
In the case of `Cc1n[nH]c2c1C(c1cc(C#CCCC(=O)N[C@H](CCC(=O)O)C(=O)O)cc(C(F)(F)F)c1)(C(C)C)C(C#N)=C(N)O2` (stereo partly shown) [Compound 70], the logP (LogP value) is reported as 2.49, the IC50 [1] is reported as 100 µM and the “% formate rescue” value (HCT cells) is reported as 94.89%.
Molecule `Cc1n[nH]c2c1C(c1cc(C#CCCCO)cc(CO)c1)(C(C)C)C(C#N)=C(N)O2` (stereo not shown) [Compound 74] has a microsomal CLint at 2 μM [2, 6] of 68 µL/min/mg and a microsomal CLint at 2 μM [2, 7] of 68 µL/min/mg.
With `Cc1n[nH]c2c1[C@@](c1cc(C(F)(F)F)cc(C(F)(F)F)c1)(C(C)C)C(C#N)=C(N)O2` [HK-16 (PK-2)] the “growth as assessed by cell count” value (Jurkat cells; 5 μM) was “inhibited”, the “rescue of growth inhibition by formate” value (Jurkat cells; 5 μM + 1 mM sodium formate) was “significantly rescued” and the “growth as assessed by cell count” value (Su-DHL-2 cells; Su-DHL-2, 5 μM) was “inhibited”. The “rescue of growth inhibition by formate” value (Su-DHL-2 cells; Su-DHL-2, 5 μM + 1 mM formate) was “not rescued”.
With `Cc1n[nH]c2c1C(c1cc(C#CCCC(=O)NC(C)(C)C(=O)O)cc(C(F)(F)F)c1)(C(C)C)C(C#N)=C(N)O2` (stereo not shown) [Compound 72] the logP (LogP value) was 3.38, the IC50 [1] was 200 µM and the “% formate rescue” value (HCT cells) was 98.35%.
With `Cc1n[nH]c2c1C(c1cc(C#CCCCN)cc(C(F)(F)F)c1)(C(C)C)C(C#N)=C(N)O2` (stereo not shown) [Compound 8] the IC50 [1] was 2.04 µM and the “% formate rescue” value (HCT cells) was 80.65%.
For `Cc1n[nH]c2c1C(c1cc(C#CCCCO)cc(C(F)(F)F)c1)(C(C)C)C(C#N)=C(N)O2` (stereo not shown) [Compound 61, 6-amino-4-(3-(5-hydroxypent-1-yn-1-yl)-5-(trifluoromethyl)phenyl)-4-isopropyl-3-methyl-1,4-dihydropyrano[2,3-c]pyrazole-5-carbonitrile], the “growth (proliferation) of HCT116 cells” value ([1]; native HCT116, FIG. 3A) was “inhibited growth” and the “growth of SHMT2 knock-out HCT116 cells” value (HCT-116 ΔSHMT2 cells) was “inhibited growth”.
In the case of `Cc1n[nH]c2c1C(c1cc(C#N)cc(C#CCCC(=O)O)c1)(C(C)C)C(C#N)=C(N)O2` (stereo not shown) [Compound 68], the IC50 [1] is reported as 100 µM and the “% formate rescue” value (HCT cells) is reported as 106.02%.
In the case of `Cc1n[nH]c2c1C(c1cc(C#CCCO)cc(C(F)(F)F)c1)(C(C)C)C(C#N)=C(N)O2` (stereo not shown) [Compound 2], the logP (LogP value) is reported as 3.46, the IC50 [1] is reported as 6.9 µM and the “% formate rescue” value (HCT cells) is reported as 100.58%.
For `Cc1n[nH]c2c1C(c1cc(CO)cc(-c3ccccc3)c1)(C(C)C)C(C#N)=C(N)O2` (stereo not shown) [HK-X2], the “concentrations that impair cell growth” value [3] was less than 100 nM, the “apoptotic fraction of cells” value (Su-DHL4 cells [4]; inhibitor alone, untreated 2%) was 8% and the “apoptotic fraction of cells” value (Su-DHL4 cells [4]; inhibitor in the presence of formate) was 15%. It also gave an IC80 (Jurkat cells; FIG. 12C legend) of 2.5 µM and an IC70 (Su-DHL4 cells [5]) of 5 µM.
`Cc1n[nH]c2c1C(c1cc(Br)cc(C(F)(F)F)c1)(C(F)(F)F)C(C#N)=C(N)O2` (stereo not shown) showed a microsomal CLint at 2 μM [2, 6] of 87.8 µL/min/mg and a microsomal CLint at 2 μM [2, 7] of 71.5 µL/min/mg.
In the case of `Cc1n[nH]c2c1C(C)(c1cccc([N+](=O)[O-])c1)C(C#N)=C(N)O2` (stereo not shown) [GD-07], the IC50 (human SHMT2; read-out: SHMT2 IC50, Table 3) is reported as greater than 5 µM.
